Values quoted from earlier work in patent US6231888A, “Local delivery of non steroidal anti inflammatory drugs (NSAIDS) to the colon as a treatment for colonic polyps” (Perio Products Ltd., priority 1998, dated 2001).

Legend:
[1] = system: HT-29 colon adenocarcinoma cells; conditions: HT-29 cells
[2] = system: SW480 colon carcinoma cells
colonic polyps = conditions: daily dose of 300 mg, taken systemically
[3] = system: sporadic colorectal adenomas; conditions: 300 mg or 150 mg daily for one year; polyps 4-12 mm
colorectal mucosa = conditions: FAP patients
[4] = system: HT-29 colon adenocarcinoma cell line
colonic biopsies = conditions: diclofenac-induced colitis
colorectal cancer = conditions: chronic use

SMILES: CSc1ccc(/C=C2/C(C)=C(CC(=O)O)c3cc(F)ccc32)cc1 [sulindac sulfide]
- COX-2 inhibition (COX-2): potent inhibitor of COX-2
- Potency in reducing proliferation and inhibiting the cell cycle vs sulindac [1]: six times more potent than sulindac
- Cell cycle inhibition [2]: induced cell cycle inhibition
- Time within which plasma concentration exceeds that of sulindac (in vivo, po): four

SMILES: CN1C(C(=O)Nc2ccccn2)=C(O)c2ccccc2S1(=O)=O [piroxicam]
- COX-2 inhibition (COX-2): strong inhibitory effect on COX-2

SMILES: Cc1cnc(NC(=O)C2=C(O)c3ccccc3S(=O)(=O)N2C)s1 [Meloxicam]
- COX-2 inhibition (COX-2): selective COX-2 inhibitor

SMILES: CC1=C(CC(=O)O)c2cc(F)ccc2/C1=C\c1ccc([S+](C)[O-])cc1 (stereo not shown) [sulindac]
- Number and size of colonic polyps (colonic polyps): significantly decreased
- Regression/progression of sporadic colorectal adenomas [3]: induced regressions and prevented the progression of sporadic colorectal adenomas
- Colonic mucosal apoptosis (colorectal mucosa): increased levels of colonic mucosal apoptosis
- Proliferation (colorectal mucosa): No effects on proliferation
- Apoptosis [4]: induction of apoptosis
- Cell proliferation or differentiation [4]: no evidence of cell proliferation or differentiation
- COX-2 inhibition (COX-2): weak inhibitor of COX-2
- COX-1 inhibition (COX-1): mainly exerts an inhibitory effect on COX-1
- Reduction product formed by colonic microflora (colonic microflora): exclusively to sulindac sulfide
- Regression of adenomatous polyps (sporadic colonic polyps): no similar regression of adenomatous polyps
- Time of peak plasma concentration (oral tablet): about two

SMILES: O=C(O)Cc1ccccc1Nc1c(Cl)cccc1Cl [diclofenac]
- Apoptotic bodies in colonic biopsies (colonic biopsies): increased levels of apoptotic bodies

SMILES: CC(=O)Oc1ccccc1C(=O)O [aspirin]
- Reduction in the incidence of colorectal cancer (colorectal cancer): 50-70%
